Data reported in PubChem BioAssay AID1963852 (Molecular Pharmacology Branch, DTP, NCI, 2024).

Test system: 282377-053-R-J1-PDC complex spheroid viability
Assay: Anticancer human tumor 282377-053-R-J1-PDC patient-derived colon adenocarcinoma cell line growth inhibition [POLQ]
Details: for IC50: curve of first compound; for viability, T/C: stronger effect = lower value
Summary of the method: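 Three-cell-type spheroids modelling solid tumor plus stroma served as the readout system; POL inhibitors were tested individually and in combination, concentration ranges set by clinical Cmax where known.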

[1] = second compound 0.0316 µM, first compound 0.0316 µM
[2] = second compound 0.0316 µM, first compound 0.1 µM
[3] = second compound 0.0316 µM, first compound 0.316 µM
[4] = second compound 0.0316 µM, first compound 1 µM
[5] = second compound 0.1 µM, first compound 0.0316 µM
[6] = second compound 0.1 µM, first compound 0.1 µM
[7] = second compound 0.1 µM, first compound 0.316 µM
[8] = second compound 0.1 µM, first compound 1 µM
[9] = second compound 0.316 µM, first compound 0.0316 µM
[10] = second compound 0.316 µM, first compound 0.1 µM
[11] = second compound 0.316 µM, first compound 0.316 µM
[12] = second compound 0.316 µM, first compound 1 µM
[13] = second compound 1 µM, first compound 0.0316 µM
[14] = second compound 1 µM, first compound 0.1 µM
[15] = second compound 1 µM, first compound 0.316 µM
[16] = second compound 1 µM, first compound 1 µM
[17] = second compound 3.16 µM, first compound 0.0316 µM
[18] = second compound 3.16 µM, first compound 0.1 µM
[19] = second compound 3.16 µM, first compound 0.316 µM
[20] = second compound 3.16 µM, first compound 1 µM
[21] = second compound 10 µM, first compound 0.0316 µM
[22] = second compound 10 µM, first compound 0.1 µM
[23] = second compound 10 µM, first compound 0.316 µM
[24] = second compound 10 µM, first compound 1 µM
[25] = second compound 0.0316 µM, first compound 3.16 µM
[26] = second compound 0.0316 µM, first compound 10 µM
[27] = second compound 0.1 µM, first compound 3.16 µM
[28] = second compound 0.1 µM, first compound 10 µM
[29] = second compound 0.316 µM, first compound 3.16 µM
[30] = second compound 0.316 µM, first compound 10 µM
[31] = second compound 1 µM, first compound 3.16 µM
[32] = second compound 1 µM, first compound 10 µM
[33] = second compound 3.16 µM, first compound 3.16 µM
[34] = second compound 3.16 µM, first compound 10 µM
[35] = second compound 10 µM, first compound 3.16 µM
[36] = second compound 10 µM, first compound 10 µM
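Note: spheroids exposed to compounds for seven days.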
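Throughout, for viability, T/C: 100% = DMSO vehicle control viability.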

C=CCn1c(=O)c2cnc(Nc3ccc(N4CCN(C)CC4)cc3)nc2n1-c1cccc(C(C)(C)O)n1 + COC1C(OC(N)=O)C(O)C(Oc2ccc3c(O)c(NC(=O)c4ccc(O)c(CC=C(C)C)c4)c(=O)oc3c2C)OC1(C)C
IC50 (second compound 0.0316 µM): > 1000 nM | IC50 (second compound 0.1 µM): > 1000 nM | IC50 (second compound 0.316 µM): > 1000 nM | IC50 (second compound 1 µM): > 1000 nM | IC50 (second compound 3.16 µM): > 1000 nM | IC50 (second compound 10 µM): > 1000 nM | viability, T/C (second compound 0.0316 µM, first compound 0.00316 µM): 85.2% | viability, T/C (second compound 0.0316 µM, first compound 0.01 µM): 97.7% | viability, T/C [1]: 147% | viability, T/C [2]: 120% | viability, T/C [3]: 91.7% | viability, T/C [4]: 64.7% | viability, T/C (second compound 0.1 µM, first compound 0.00316 µM): 122% | viability, T/C (second compound 0.1 µM, first compound 0.01 µM): 108% | viability, T/C [5]: 94.4% | viability, T/C [6]: 118% | viability, T/C [7]: 99.1% | viability, T/C [8]: 89.9% | viability, T/C (second compound 0.316 µM, first compound 0.00316 µM): 113% | viability, T/C (second compound 0.316 µM, first compound 0.01 µM): 109% | viability, T/C [9]: 134% | viability, T/C [10]: 96.3% | viability, T/C [11]: 98.7% | viability, T/C [12]: 81.7% | viability, T/C (second compound 1 µM, first compound 0.00316 µM): 114% | viability, T/C (second compound 1 µM, first compound 0.01 µM): 90.5% | viability, T/C [13]: 93.1% | viability, T/C [14]: 109% | viability, T/C [15]: 110% | viability, T/C [16]: 67.8% | viability, T/C (second compound 3.16 µM, first compound 0.00316 µM): 118% | viability, T/C (second compound 3.16 µM, first compound 0.01 µM): 120% | viability, T/C [17]: 78.4% | viability, T/C [18]: 91.5% | viability, T/C [19]: 105% | viability, T/C [20]: 76.4% | viability, T/C (second compound 10 µM, first compound 0.00316 µM): 88.5% | viability, T/C (second compound 10 µM, first compound 0.01 µM): 91.8% | viability, T/C [21]: 87.2% | viability, T/C [22]: 102% | viability, T/C [23]: 96.7% | viability, T/C [24]: 75.5%

CC1COCCN1c1cc(-c2ccnn2C)c2ccnc(-c3ccn[nH]3)c2n1 (stereo unspecified) + COC1C(OC(N)=O)C(O)C(Oc2ccc3c(O)c(NC(=O)c4ccc(O)c(CC=C(C)C)c4)c(=O)oc3c2C)OC1(C)C
IC50 (second compound 0.0316 µM): 377 nM | IC50 (second compound 0.1 µM): 398 nM | IC50 (second compound 0.316 µM): 589 nM | IC50 (second compound 1 µM): 677 nM | IC50 (second compound 3.16 µM): 450 nM | IC50 (second compound 10 µM): 642 nM | viability, T/C [1]: 107% | viability, T/C [2]: 99.6% | viability, T/C [3]: 52.5% | viability, T/C [4]: 34.2% | viability, T/C [25]: 26.9% | viability, T/C [26]: 25.4% | viability, T/C [5]: 95.2% | viability, T/C [6]: 80.5% | viability, T/C [7]: 52.7% | viability, T/C [8]: 36.5% | viability, T/C [27]: 33.9% | viability, T/C [28]: 27.6% | viability, T/C [9]: 95.6% | viability, T/C [10]: 87.5% | viability, T/C [11]: 59.9% | viability, T/C [12]: 41.1% | viability, T/C [29]: 25.9% | viability, T/C [30]: 20.4% | viability, T/C [13]: 89.1% | viability, T/C [14]: 85.3% | viability, T/C [15]: 68.4% | viability, T/C [16]: 40% | viability, T/C [31]: 27.4% | viability, T/C [32]: 21.4% | viability, T/C [17]: 102% | viability, T/C [18]: 94.8% | viability, T/C [19]: 57.3% | viability, T/C [20]: 32.5% | viability, T/C [33]: 26.5% | viability, T/C [34]: 22.6% | viability, T/C [21]: 121% | viability, T/C [22]: 80.8% | viability, T/C [23]: 66.7% | viability, T/C [24]: 39.7% | viability, T/C [35]: 33.3% | viability, T/C [36]: 21.8%

CC1COCCN1c1cc(C2(S(C)(=N)=O)CC2)nc(-c2ccnc3[nH]ccc23)n1 (stereo unspecified) + COC1C(OC(N)=O)C(O)C(Oc2ccc3c(O)c(NC(=O)c4ccc(O)c(CC=C(C)C)c4)c(=O)oc3c2C)OC1(C)C
IC50 (second compound 0.0316 µM): > 10000 nM | IC50 (second compound 0.1 µM): 5460 nM | IC50 (second compound 0.316 µM): 6610 nM | IC50 (second compound 1 µM): 7630 nM | IC50 (second compound 3.16 µM): 6860 nM | IC50 (second compound 10 µM): 9910 nM | viability, T/C [1]: 108% | viability, T/C [2]: 89.1% | viability, T/C [3]: 110% | viability, T/C [4]: 76.9% | viability, T/C [25]: 74.9% | viability, T/C [26]: 56.7% | viability, T/C [5]: 92.4% | viability, T/C [6]: 104% | viability, T/C [7]: 88.5% | viability, T/C [8]: 72.1% | viability, T/C [27]: 61.9% | viability, T/C [28]: 39.6% | viability, T/C [9]: 103% | viability, T/C [10]: 82.1% | viability, T/C [11]: 83.6% | viability, T/C [12]: 81% | viability, T/C [29]: 80.4% | viability, T/C [30]: 33.9% | viability, T/C [13]: 115% | viability, T/C [14]: 90.2% | viability, T/C [15]: 91.5% | viability, T/C [16]: 81% | viability, T/C [31]: 79.5% | viability, T/C [32]: 39.9% | viability, T/C [17]: 99% | viability, T/C [18]: 93.3% | viability, T/C [19]: 85.3% | viability, T/C [20]: 107% | viability, T/C [33]: 59.6% | viability, T/C [34]: 45.3% | viability, T/C [21]: 104% | viability, T/C [22]: 119% | viability, T/C [23]: 79.8% | viability, T/C [24]: 92.3% | viability, T/C [35]: 66.1% | viability, T/C [36]: 49.7%
